The record followed here is US7977387B2, “Aminobenzophenone compounds” (Leo Pharma A/S, priority 2003, dated 2011).

The test system of one assay is TNF-α. Nature of the assay: Inhibition of TNF-α secretion in LPS stimulated peripheral blood mononuclear cells. It counts as cell-based. The note with it: PBMC; LPS stimulated human peripheral blood mononuclear cells, 18 hours, ELISA; read-out: The median inhibition concentration (IC50, nM) of TNF-α. The gist of the method:
(§1)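 Human PBMCs (5×10^5 cells/ml, RPMI 1640 + 2% FCS) pre-treated with compound 30 min, then stimulated with LPS ([…]) for 18 h. Secreted IL-1β and TNF-α quantified by ELISA; IC50 values calculated.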

In the next assay the test system is IL-1β. Description: Inhibition of IL-1β secretion in LPS stimulated peripheral blood mononuclear cells. It counts as cell-based. The note with it: PBMC; LPS stimulated human peripheral blood mononuclear cells, 18 hours, ELISA; read-out: The median inhibition concentration (IC50, nM) of IL-1β. In outline: as §1
In general terms: An ELISA detects its analyte on a solid surface through an enzyme-linked reagent.

The subject of assay [1] is LPS induced TNF-α response. Description: In vivo screening model of LPS induced TNF-α response in mice. The note with it: Mus musculus, mice (C3H/HeN), dosed 1 hour prior to LPS, plasma TNF-α 80-90 minutes after LPS, vs LPS treated control group, read-out: In vivo inhibition of LPS induced TNF-α production (in %). Here is the method: In Vivo Screening Model of LPS Induced TNF-α Response in Mice
To study the effect of compounds of the present invention in vivo, an in vivo screening model of LPS induced TNF-α response in mice was set up as follows: Groups of 6 mice (C3H/HeN, female, about 8 weeks (20 g), Bomholtgaard) were dosed with test compounds in suspension vehicle 1 hour prior to LPS administration (LPS from E. coli 055:B5, L-4005, Sigma). At time 0, the mice were dosed ip with 1.0 mg LPS/kg. After anesthetization with Hypnorm/Dormicum, the mice were bled from the periorbital venous plexus 80-90 minutes after LPS administration. The blood samples were sampled in EDTA stabilised tubes and centrifuged at 4000 rpm for 10 minutes at 4° C. The plasma level of TNF-α was analysed by ELISA. Compound 156 of WO 98/32730 was used as reference compound. The plasma level of TNF-α was determined using a sandwich ELISA. Microtiter plates were coated with a monoclonal antibody against mouse TNF-α, washed and blocked with a casein buffer. Samples of mouse TNF-α recombinant standards were added to the wells of the microtiter plates and incubated. All standards were tested in triplicate, all plasma samples in single. After sample and standard incubation, the plates were washed and incubated with biotinylated polyclonal secondary antibody against mouse TNF-α and washed. Enzyme conjugate was added to all wells and incubated. Substrate was added and the enzyme/substrate reaction stopped after 15 minutes at room temperature with 1M H2SO4. The colour development (OD) was measured at 450 nm on an ELISA reader and the background OD at 620 nm was subtracted. […] The results of the tested compounds are indicated as a percentage inhibition compared to an LPS treated control group. Compounds were tested at 10 mg/kg. The Mann-Whitney test was used to compare drug treated groups to the LPS treated control group (p<0.05).

As to `Cc1ccc(C(=O)NCCO)cc1C(=O)c1ccc(Nc2ccc(F)cc2Cl)cc1Cl` [Compound 188, 3-[2-Chloro-4-(2-chloro-4-fluoro-phenylamino)-benzoyl]-N-(2-hydroxy-ethyl)-4-methyl-benzamide], the figures for the IC50 in the assay on TNF-α and with IL-1β were 0.5 nM and 0.9 nM, respectively. Also, the inhibition at 10 mg/kg in assay [1] was 95%.

For the compound `CCCNC(=O)Nc1ccc(C)c(C(=O)c2ccc(Nc3ccc(F)cc3F)cc2Cl)c1` [Compound 264, 1-{3-[2-Chloro-4-(2,4-difluoro-phenylamino)-benzoyl]-4-methyl-phenyl}-3-propyl-urea], the IC50 in the assay on TNF-α was found to be 0.3 nM; in the assay with IL-1β it was 1 nM. Also, in assay [1], the inhibition at 10 mg/kg stood at 87%.

Take `Cc1ccc(C(=O)NCCO)cc1C(=O)c1ccc(Nc2ccc(F)cc2F)cc1Cl` [Compound 115, 3-[2-Chloro-4-(2,4-difluorophenylamino)benzoyl]-N-(2-hydroxyethyl)-4-methylbenzamide]: the IC50 in the assay on TNF-α came out at 0.3 nM; in the assay on IL-1β, 1.3 nM. In assay [1], the inhibition at 10 mg/kg was 96%.

Regarding `CSCCC(=O)Nc1ccc(C)c(C(=O)c2ccc(Nc3ccc(F)cc3F)cc2Cl)c1` [Compound 251, N-{3-[2-Chloro-4-(2,4-difluoro-phenylamino)-benzoyl]-4-methyl-phenyl}-3-methylsulfanyl-propionamide], the IC50 stood at 0.4 nM with TNF-α and 1.1 nM in the assay on IL-1β. Moreover, the inhibition at 10 mg/kg in assay [1] came out at 49%.

As for `CCNC(=O)c1ccc(C)c(C(=O)c2ccc(Nc3ccccc3N)cc2Cl)c1` [Compound 117, 3-[4-(2-Aminophenylamino)-2-chlorobenzoyl]-N-ethyl-4-methylbenzamide], the IC50 was determined as 1 nM with TNF-α and 4 nM in the assay with IL-1β. Besides, the inhibition at 10 mg/kg in assay [1] is 71%.

As for `Cc1ccc(C(=O)NCCF)cc1C(=O)c1ccc(Nc2ccc(F)cc2F)cc1Cl` [Compound 147, 3-[2-Chloro-4-(2,4-difluoro-phenylamino)-benzoyl]-N-(2-fluoro-ethyl)-4-methyl-benzamide], the IC50 in the assay on TNF-α was 0.8 nM; in the assay with IL-1β, 2.5 nM. For the same compound, the inhibition at 10 mg/kg in assay [1] is 89%.

Regarding `Cc1ccc(C(=O)NC(C)(CO)CO)cc1C(=O)c1ccc(Nc2ccc(F)cc2F)cc1Cl` [Compound 157, 3-[2-Chloro-4-(2,4-difluoro-phenylamino)-benzoyl]-N-(2-hydroxy-1-hydroxymethyl-1-methyl-ethyl)-4-methyl-benzamide], the IC50 stood at 0.9 nM in the assay with TNF-α and 2.2 nM with IL-1β. Besides, the inhibition at 10 mg/kg in assay [1] is 83%.

Turning to `CCOC(=O)CNC(=O)c1ccc(C)c(C(=O)c2ccc(Nc3ccc(Cl)cc3F)cc2Cl)c1` [Compound 123, {3-[2-Chloro-4-(4-chloro-2-fluoro-phenylamino)-benzoyl]-4-methyl-benzoylamino}acetic acid ethyl ester], the IC50 in the assay on TNF-α was found to be 0.3 nM; in the assay with IL-1β, 0.5 nM. Further, in assay [1], the inhibition at 10 mg/kg is 47%.

In the case of `COc1ccc(C(=O)NCCO)cc1C(=O)c1ccc(Nc2ccc(F)cc2F)cc1Cl` [Compound 140, 3-[2-Chloro-4-(2,4-difluoro-phenylamino)-benzoyl]-N-(2-hydroxy-ethyl)-4-methoxy-benzamide], the figures for the IC50 with TNF-α and in the assay with IL-1β were 1 nM and 1.4 nM, respectively. Further, in assay [1], the inhibition at 10 mg/kg amounted to 76%.

As to `Cc1ccc(C(=O)NC(C)C)cc1C(=O)c1ccc(Nc2ccc(F)cc2F)cc1Cl` [Compound 164, 3-[2-Chloro-4-(2,4-difluoro-phenylamino)-benzoyl]-N-isopropyl-4-methyl-benzamide], the IC50 came to 2 nM in the assay on TNF-α and 1.3 nM in the assay with IL-1β. For the same compound, in assay [1], the inhibition at 10 mg/kg came out at 76%.

Take `Cc1ccc(C(=O)NCC(C)O)cc1C(=O)c1ccc(Nc2ccc(F)cc2F)cc1Cl` (stereo not drawn) [Compound 151, 3-[2-Chloro-4-(2,4-difluoro-phenylamino)-benzoyl]-N-(2-hydroxy-propyl)-4-methyl-benzamide]: the values for the IC50 with TNF-α and with IL-1β were 0.4 nM and 1.8 nM, respectively. Moreover, in assay [1], the inhibition at 10 mg/kg is 99%.

In the case of `COc1ccc(C(=O)NCC(F)F)cc1C(=O)c1ccc(Nc2ccc(F)cc2)cc1Cl` [Compound 196, 3-[2-Chloro-4-(4-fluoro-phenylamino)-benzoyl]-N-(2,2-difluoro-ethyl)-4-methoxy-benzamide], the IC50 was determined as 1 nM in the assay on TNF-α and 3.2 nM in the assay on IL-1β. For the same compound, the inhibition at 10 mg/kg in assay [1] stood at 66%.

Consider `COc1ccc(C(=O)NCCCO)cc1C(=O)c1ccc(Nc2c(F)cccc2F)cc1Cl` [Compound 176, 3-[2-Chloro-4-(2,6-difluoro-phenylamino)-benzoyl]-N-(3-hydroxy-propyl)-4-methoxy-benzamide], for which the results for the IC50 in the assay with TNF-α and with IL-1β were 2 nM and 3.2 nM, respectively. Moreover, the inhibition at 10 mg/kg in assay [1] is 52%.

Consider `COc1ccc(C(=O)NCC(F)F)cc1C(=O)c1ccc(Nc2ccc(F)cc2F)cc1Cl` [Compound 141, 3-[2-Chloro-4-(2,4-difluoro-phenylamino)-benzoyl]-N-(2,2-difluoro-ethyl)-4-methoxy-benzamide], for which the IC50 was 0.6 nM with TNF-α and 0.9 nM with IL-1β. In addition, the inhibition at 10 mg/kg in assay [1] was found to be 46%.

The term inhibition denotes the change of the read-out against control, counted positive when it falls.
